Test results as given in patent US9457063B2, “Method for treatment of diabetic vascular leakage-induced disease using C-peptide” (KANGWON NATIONAL UNIVERSITY UNIVERSITY-INDUSTRY COOPERATION …, priority 2012, dated 2016).
“And” between values parts separate entries of the source, which are not always exact repeats. Identical values can stand only once.

Assays:
HUVECs [1] = assay: VEGF-induced intracellular ROS generation in HUVECs; assay type: cell-based, human; conditions: for VEGF-induced intracellular ROS generation: HUVECs pre-incubated 30 min with 1 mM NAC, 0.5 mM Trolox or 5 μM BAPTA-AM, 10 ng/ml VEGF 10 min
Protocol: HUVECs were isolated from the human umbilical cord vein according to a well known process, and cells from passages 3 to 6 were used in the following experiments. Cells were inoculated into M199 culture media (supplemented with 20% FBS, 3 ng/ml bFGF, 5 U/ml heparin, 100 U/ml penicillin, and 100 μg/ml streptomycin) in 2% gelatin-coated coverslips, dishes, or plates, and grown at 37° C. in a humidified 5% CO2 incubator.
For experiments, cells were incubated for 6 h in low-serum medium (M199 supplemented as above, but with only 1% FBS), and treated for a suitable time with 10 ng/ml VEGF in the presence or absence of various concentrations of C-peptide.
In detail, HUVECs inoculated into coverslips were treated with VEGF and C-peptide, and incubated with 10 μM 2′,7′-dichlorodihydrofluorescein diacetate (Molecular Probes, Eugene, Oreg.) in phenol red-free media for the last 10 min. The coverslips were mounted on a perfusion chamber, and labeled cells were rapidly scanned by confocal microscopy. The level of intracellular ROS was determined by comparing the fluorescence intensities of treated cells with those of control cells, and expressing this as a fold difference.

HUVECs [2] = assay: Intracellular Ca2+ levels in HUVECs (Fluo-4 AM); assay type: cell-based, human; conditions: HUVECs labeled with 1 μM Fluo-4 AM; for effect on VEGF-induced changes in intracellular Ca2+: n=3
Protocol: To monitor intracellular Ca^2+ levels, cells inoculated into coverslips were incubated with 1 μM Fluo-4 AM for 30 min. The coverslips were mounted on perfusion chambers and scanned every 10 sec by confocal microscopy (FV-300). Serial images from the scan were processed to analyze changes in intracellular Ca^2+ levels at the single-cell level. Data were expressed as the relative fluorescence intensity (RFI).

[3] = tested on: retinas of streptozotocin diabetic mice; assay: Retinal vascular leakage in streptozotocin diabetic mice (FITC-dextran fluorescein angiography); assay type: in vivo; conditions: for retinal microvascular leakage (extravasation of FITC-dextran) in diabetic mice: intravitreal injection, VEGF antibody 100 μg/ml, N-acetyl-cysteine 81.5 mg/ml, Trolox 125 μg/ml, 2 μl C-peptide, 24 hrs post-injection, n=6, p<0.01
Protocol: Diabetic mice were generated by a single intraperitoneal injection of streptozotocin (150 mg/kg body weight) freshly prepared in 100 mM citrate buffer (pH 4.5). All mice were supplied with 10% sucrose overnight. Sufficient hyperglycemia was observed 2 days post-injection, as measured by the ACCU-CHEK® Active blood glucose monitor (Roche Diagnostics, Germany). One week after the streptozotocin injection, mice with non-fasting blood glucose levels greater than 16 mM, polyuria, and glucosuria were defined as diabetic and used for the experiments.
The diabetic mice were intravitreally injected with 2 μl of C-peptide (3.7 μg/ml) in PBS into one eye, and an equal volume of PBS was injected into the contralateral eye (n=6 per group). Normal (non-diabetic) mice were also intravitreally injected with 2 μl of PBS into eyes (Normal; n=6 per group). C-peptide concentrations in the vitreous chamber were maintained within the physiological range (0.9 to 2.0 nM) for 12 hrs after intravitreal injection.
After 24 hrs post injection, retina leakage was quantified using fluorescein angiography. In this regard, mice were injected with 1.25 mg of 500-kDa FITC-dextran (Sigma-Aldrich) into the left ventricle and the dye was allowed to circulate for 5 min. Eyes were enucleated and immediately fixed with 4% paraformaldehyde for 45 min. Retinas were dissected, cut in the Maltese cross-configuration, and flat-mounted onto slide glass. Retinas were observed using the confocal microscope. Retina leakage was quantitatively analyzed by determining the intensities of extravasated FITC-dextran from whole retina tissues (n=6 per group) using the FV-300 software.
Diabetic mice were intravitreally injected with a monoclonal VEGF antibody (100 μg/ml), N-acetyl-cysteine (81.5 mg/ml), or Trolox (125 μg/ml) into one eye, and an equal volume of PBS was injected into the contralateral eye (n=6 per group). Twenty four hrs post-injection, retinal vascular leakage was quantified using fluorescein angiography. For the experiment, mice were injected with 1.25 mg of 500-kDa FITC-dextran (Sigma) into the left ventricle and the dye was allowed to circulate for 5 min. The eyes were enucleated and immediately fixed with 4% paraformaldehyde for 45 min. Retinas were dissected, cut in the Maltese cross-configuration, and flat-mounted onto slide glass before observation using confocal microscopy. Retinal vascular leakage was quantitatively analyzed by determining the intensities of extravasated FITC-dextran from whole retina tissues (n=6 per group) using confocal microscopy (FV-300, Olympus, Tokyo, Japan), and applying the intensity data to the FV-300 software.

HUVECs [4] = assay: VEGF-induced stress fiber formation in HUVECs (rhodamine-phalloidin); assay type: cell-based, human; conditions: HUVECs 1 hr; 10 ng/ml VEGF with 0.5 nM C-peptide, 1 mM NAC or 0.5 mM Trolox; n=3
Protocol: HUVECs were grown on gelatin-coated round coverslips in 12-well culture plates, […], alone or in combination, or with 10 ng/ml VEGF in the presence of an ROS scavenger, that is, 1 mM NAC or 0.5 mM Trolox for 1 hr at 37° C. The cells were rapidly rinsed with PBS and fixed with 3.7% formaldehyde in PBS for 30 min. Then, the cells were permeabilized with 0.2% Triton X-100 in PBS for 30 min, and stained with rhodamine-palloidin (Molecular Probes) in PBS for 1 h. The resulting stained cells were mounted on a glass slide using a mounting solution, followed by visualizing actin filaments by confocal microscopy.

HUVECs [5] = assay: VEGF-induced disassembly of VE-cadherin adherens junctions in HUVECs; assay type: cell-based, human; conditions: for VEGF-induced disassembly of VE-cadherin: HUVECs 90 min, 10 ng/ml VEGF with 0.5 nM C-peptide, 1 mM NAC or 0.5 mM Trolox, n=3
Protocol: Confluent cell layers (HUVECs) in 6-well plates were incubated with C-peptide or an ROS scavenger for 30 min, and then treated with VEGF for 90 min at 37° C. The treated cells were rinsed with PBS, and fixed with 3.7% formaldehyde in PBS for 30 min. The cells were permeabilized with 0.2% Triton X-100 in PBS for 30 min, and stained overnight at 4° C. with a monoclonal VE-cadherin antibody (Santa Cruz Biotechnology, Santa Cruz, Calif.) in PBS. Thereafter, the cells were probed with goat anti-mouse FITC (fluorescein isothiocyanate; Sigma, St. Louis, Mo.), followed by visualizing VE-cadherin by confocal microscopy.

[6] = tested on: microvessels of the diabetic mouse retina; assay: Disassembly of adherens junctions (VE-cadherin) in retina of diabetic mice; assay type: in vivo; conditions: intravitreal 2 μl C-peptide, n=3
Protocol: Diabetic mice were intravitreally injected with 2 μl C-peptide into one eye (Diabetic+C-Pep) and an equal volume of PBS into the contralateral eye (Diabetic, n=3). Normal (non-diabetic) mice also were intravitreally injected with 2 μl PBS into eyes (Normal, n=3).
VE-cadherin was stained in the retina and visualized using confocal microscopy as described below.
Microvessels were stained for VE-cadherin in retinal whole mounts. In detail, isolated retinas were fixed in 100% ethanol for 30 min, delipidated in 100% ice-cold acetone for 10 min, and permeabilized with 0.3% Triton X-100 for 1 hr. The retinas were incubated with an anti-VE-cadherin antibody (Enzo Life Sciences, Farmingdale, N.Y., USA) at 4° C. for 24 hrs, and probed with goat anti-mouse FITC (Sigma) at 4° C. for 24 hrs, followed by visualizing VE-cadherin by confocal microscopy (FV-300, Olympus).

[7] = Serum C-peptide levels during subcutaneous mini-osmotic pump delivery; assay type: in vivo; conditions: diabetic mice, 35 pmol/min/kg, n=7
Protocol: After implantation of a mini-osmotic pump for delivering C-peptide, blood c-peptide levels were measured. One group of diabetic mice (n=7) was subcutaneously implanted with ALZET® mini-osmotic pump 2004 (DURECT, Cupertino, Calif.) containing C-peptide in PBS with a delivery rate of 35 pmol/min/kg. The other diabetic (n=7) and control groups (n=7) underwent sham operations. During the continuous subcutaneous C-peptide perfusion, serum C-peptide levels were measured using a C-peptide Enzyme Immunoassay Kit (RayBiotech, Norcross, Ga.).

[8] = tested on: skin of streptozotocin diabetic mice; assay: Miles vascular permeability assay in skin of streptozotocin diabetic mice; assay type: in vivo
Protocol: A Miles vascular permeability assay was performed in diabetic mice as follows. After 2 to 3 days post-shaving, mice were anesthetized and intravenously injected with 150 μl of a 1% Evans blue solution. After 15 min, 15 μl of a VEGF (10 ng) solution containing 0, 7.5, or 15 ng of C-peptide was injected intradermally into the shaved skin of the mice (n=12 per group). PBS was injected for the control (n=12). An area of skin that included the blue spot resulting from leakage of the dye was dissected, and the Evans blue dye was eluted from the dissected skin by incubation with formamide at 56° C. for 2 days. The amount of dye was quantitated by spectrophotometry at 620 nm.

[9] = C-peptide levels in the vitreous fluid after intravitreal injection; assay type: in vivo, mice; conditions: mouse, 7.5 ng, after intravitreal injection of 2 μl C-peptide (3.7 μg/ml), maintained for 12 hrs, physiological range, read-out: C-peptide concentrations in the vitreous chamber
Protocol: After intravitreal injection, C-peptide levels in the vitreous fluid were monitored with time. In this regard, C-peptide was intravitreally injected at a dose of 7.5 ng, after which C-peptide in the vitreous chamber was quantitated using a human C-peptide ELISA kit (Millipore Co. Billerica, Mass.) (n=4).

FIG. 6A = assay: FIG. 6A
Excerpt: Table printed on a drawing sheet, FIG. 6A
Footnotes: Data are means ± S.D. / ***p<0.001 vs. control mice.
FIG. 6D is a graph in which serum C-peptide levels are plotted against time after intravitreal injection; and
First reader's note: Each column is a mouse group; the cells give mean ± S.D. of the serum C-peptide level.

Row | serum C-peptide level [7] | level at time molar [9] [nM] | Serum C-peptide (nM) (4 weeks after C-peptide delivery) (FIG. 6A) | Serum C-peptide (nM) (at 1 week of diabetes induction) (FIG. 6A) | SMILES | VEGF-induced intracellular ROS generation (HUVECs [1]) | effect on VEGF-induced changes in intracellular Ca2+ (HUVECs [2]) | extravasation of FITC-dextran (vascular leakage) in the retinas of diabetic mice ([3]; intravitreal 2 μl C-peptide (3.7 μg/ml), 24 hrs post injection, vs PBS contralateral eye, n=6, p<0.05) | retinal microvascular leakage (extravasation of FITC-dextran) in diabetic mice [3] | concentration at which complete prevention of VEGF-induced ROS generation was observed (HUVECs [1]; HUVECs pre-treated 30 min, 10 ng/ml VEGF) [nM] | VEGF-induced generation of intracellular ROS (HUVECs [1]; HUVECs pre-treated with various concentrations of C-peptide 30 min, 10 ng/ml VEGF, dose-dependent) | effect of substance alone on intracellular Ca2+ (HUVECs [2]; no VEGF) | VEGF-induced stress fiber formation (HUVECs [4]) | VEGF-induced disassembly of VE-cadherin (HUVECs [5]) | VEGF-induced decrease in the fluorescence intensity of the adherens junctions (HUVECs [5]; HUVECs, VE-cadherin histograms (RFI), FIG. 4B) | diabetes-induced disassembly of adherens junctions in retinal microvessels [6] | VEGF-induced vascular permeability (Evans blue leakage) in skin ([8]; intradermal VEGF (10 ng) with 7.5 or 15 ng C-peptide, dose-dependent, n=12, p<0.01) | vascular permeability with C-peptide alone ([8]; intradermal, no VEGF)
1 |  |  |  |  | CC(=O)OCOC(=O)CN(CC(=O)OCOC(C)=O)c1ccccc1OCCOc1ccccc1N(CC(=O)OCOC(C)=O)CC(=O)OCOC(C)=O [BAPTA-AM, 1,2-bis(2-aminophenoxy)ethane-N,N,N-′,N′-tetraacetic acid tetrakis(acetoxymethyl ester), reference compound] | blocked | blocked |  |  |  |  |  |  |  |  |  |  | 
2 | elevated to a normal value | 0.9 to 2 | 1.50 ± 0.89 nM and 2.40 ± 0.93 nM | 1.44 ± 0.53 | CC(C)C[C@H](NC(=O)[C@H](C)NC(=O)[C@H](CC(C)C)NC(=O)[C@@H]1CCCN1C(=O)[C@H](CCC(N)=O)NC(=O)[C@H](CC(C)C)NC(=O)[C@H](CO)NC(=O)CNC(=O)[C@H](C)NC(=O)CNC(=O)[C@@H]1CCCN1C(=O)CNC(=O)CNC(=O)CNC(=O)[C@H](CC(C)C)NC(=O)[C@H](CCC(=O)O)NC(=O)[C@@H](NC(=O)[C@H](CCC(N)=O)NC(=O)CNC(=O)[C@@H](NC(=O)[C@H](CCC(N)=O)NC(=O)[C@H](CC(C)C)NC(=O)[C@H](CC(=O)O)NC(=O)[C@H](CCC(=O)O)NC(=O)[C@H](C)NC(=O)[C@@H](N)CCC(=O)O)C(C)C)C(C)C)C(=O)N[C@@H](CCC(=O)O)C(=O)NCC(=O)N[C@@H](CO)C(=O)N[C@@H](CC(C)C)C(=O)N[C@@H](CCC(N)=O)C(=O)O [C-peptide] |  | had no effect | blocked | blocked | 0.5 | inhibited | did not increase | sufficiently suppressed | inhibited | recovered | inhibited | suppressed | did not cause a significant change
3 |  |  |  |  | CC(=O)N[C@@H](CS)C(=O)O [NAC, N-acetyl-L-cysteine, reference compound] | abolished |  |  | prevented |  |  |  | inhibited | prevented |  |  |  | 
4 |  |  |  |  | Cc1c(C)c2c(c(C)c1O)CCC(C)(C(=O)O)O2 (centres unmarked) [Trolox, reference compound] | abolished |  |  | prevented |  |  |  | inhibited | prevented |  |  |  | 
